Laboratory results: patent US12012411B2, “Viral replication inhibitors” (Katholieke Universiteit Leuven, priority 2011, dated 2024)

Assays:
DENV-2 NGC = assay: Antiviral activity against DENV-2 NGC in Vero-B cells (viral RNA load by RT-qPCR); type: cell-based, Dengue virus; conditions: Dengue virus, DENV2, Vero B, DENV-2 in Vero-B cells; inhibition of viral RNA replication by 50% (Table 3)
[1] = tested on: uninfected quiescent Vero-B cells; assay: Cytotoxic assay in uninfected quiescent Vero-B cells (MTS/PMS); conditions: 4 days (Table 3)
[2] = tested on: DENV-3 strain H87 prototype; assay: Antiviral activity against DENV-3 in Vero-B cells (viral RNA load by RT-qPCR); type: cell-based, Dengue virus; conditions: Dengue virus, DENV3, Vero B
[3] = tested on: DENV-4 strain Dak HD 34 460; assay: Antiviral activity against DENV-4 in Vero-B cells (viral RNA load by RT-qPCR); type: cell-based, Dengue virus; conditions: Dengue virus, DENV4, Vero B
[4] = tested on: DENV-1 Djibouti strain D1/H/IMTSSA/98/606; assay: Antiviral activity against DENV-1 in Vero-B cells (viral RNA load by RT-qPCR); type: cell-based, Dengue virus; conditions: Dengue virus, DENV1, Vero B
in vitro = conditions: African green monkey, uninfected quiescent Vero-B cells

SMILES | EC50 (DENV-2 NGC) [nM] | CC50 [1] [µM] | EC50 [2] [nM] | EC50 [3] [µM] | EC50 [4] [nM] | CC50 at 4 days (in vitro) [µM]
O=C(c1c[nH]c2ccccc12)C(NC1CCCC1)c1ccccc1 (stereo not shown) [CPD-183] | 15200 | 86 |  |  |  | 
COc1cccc(NC(C(=O)c2c[nH]c3c(F)cccc23)c2ccccc2)c1 (stereo not shown) [CPD-205] | 60 | 14 |  |  |  | 
COc1cc(NC(C(=O)c2c[nH]c3ccccc23)c2ccccc2)cc(OCCN(C)C)c1 (stereo not shown) [CPD-243] | 1690 | 13 |  |  |  | 
COc1cncc(NC(C(=O)c2c[nH]c3ccccc23)c2ccccc2)n1 (stereo not shown) [CPD-252] | 480 | 68 | 12600 | 2.29 |  | 
COc1cccc(NC(C(=O)c2c[nH]c3ccccc23)c2ccccc2)n1 (stereo not shown) [CPD-277] | 290 | 16 |  |  |  | 
COc1cc(CO)cc(NC(C(=O)c2c[nH]c3ccccc23)c2ccc(F)cc2)c1 (stereo not shown) [CPD-313] | 40 |  | 1110 | 5.84 | 720 | 58
COc1cccc(NC(C(=O)c2c[nH]c3ccccc23)c2ccc(C#N)nc2)c1 (stereo not shown) [CPD-314] | 210 |  | 2800 | 8.76 | 1700 | 50
COc1cccc(NC(C(=O)c2c[nH]c3ccccc23)c2ccc(C(F)(F)F)nc2)c1 (stereo not shown) [CPD-315] | 50 |  | 1010 | 1.97 | 380 | 13
COc1cc(NC(C(=O)c2c[nH]c3cc(F)ccc23)c2ccccc2)cc(OCCO)c1 (stereo not shown) [CPD-316] | 20 |  | 320 | 4.42 | 390 | 29
COc1cccc(NC(C(=O)c2c[nH]c3ccccc23)c2cccnn2)c1 (stereo not shown) [CPD-317] | 580 |  | 12800 | 10.6 | 4130 | 88
COc1cc(CO)cc(NC(C(=O)c2c[nH]c3c(C)cccc23)c2ccccc2)c1 (stereo not shown) [CPD-318] | 60 |  | 2320 | 10.8 | 220 | 54
COc1cc(NC(C(=O)c2c[nH]c3ccccc23)c2ccccc2)cc(OC)n1 (stereo not shown) [CPD-319] | 120 |  | 1700 | 2.27 | 2840 | 20
COc1cccc(NC(C(=O)c2c[nH]c3ccccc23)c2cncc(F)c2)c1 (stereo not shown) [CPD-321] | 110 |  | 320 | 2.74 | 400 | 33
COc1cccc(NC(C(=O)c2c[nH]c3c(C)cccc23)c2cc3ccccn3n2)c1 (stereo not shown) [CPD-329] | 10 |  | 320 | 2.92 | 270 | 41
COc1cc(NC(C(=O)c2c[nH]c3c(C)cccc23)c2ccccc2)cc(OCCO)c1 (stereo not shown) [CPD-331] | 20 |  | 390 | 3.28 | 390 | 14
COc1cccc(NC(C(=O)c2c[nH]c3c(C)cccc23)c2ccc(OC)nc2)c1 (stereo not shown) [CPD-332] | 40 |  | 1350 | 2.84 | 720 | 20
COc1cc(CO)cc(NC(C(=O)c2c[nH]c3ccccc23)c2ccc(F)nc2)c1 (stereo not shown) [CPD-333] | 40 |  | 490 | 5.92 | 390 | 90
COc1cc(NC(C(=O)c2c[nH]c3ccccc23)c2ccc(OC)nc2)cc(OC)c1 (stereo not shown) [CPD-335] | 20 |  | 420 | 2.38 | 320 | 18
COc1cc(NC(C(=O)c2c[nH]c3c(C)cccc23)c2ccccc2)cc(OC)c1 (stereo not shown) [CPD-337] | 5 |  | 230 | 0.95 | 90 | 15
COc1cc(NC(C(=O)c2c[nH]c3c(CCO)cccc23)c2ccccc2)cc(OC)c1 (stereo not shown) [CPD-339] | 90 |  | 820 | 2.93 | 810 | 19
COc1cccc(NC(C(=O)c2c[nH]c3ccccc23)c2ccccc2C)c1 (stereo not shown) [CPD-348] | 100 | 14 |  | 3.75 |  | 
COc1cc(NC(C(=O)c2c[nH]c3ccc(CO)cc23)c2ccccc2)cc(OC)c1 (stereo not shown) [CPD-351] | 110 | 65 | 2020 | 9.58 |  | 
COc1cc(NC(C(=O)c2c[nH]c3cccc(CO)c23)c2ccccc2)cc(OC)c1 (stereo not shown) [CPD-352] | 290 | 71 | 3030 | 8.6 |  | 
COc1cc(NC(C(=O)c2c[nH]c3ccc(CCCO)cc23)c2ccccc2)cc(OC)c1 (stereo not shown) [CPD-353] | 100 | 56 | 170 | 7.18 |  | 
COc1cc(NC(C(=O)c2c[nH]c3cccc(CCCO)c23)c2ccccc2)cc(OC)c1 (stereo not shown) [CPD-357] | 1350 | 55 |  |  |  | 
COc1cc(NC(C(=O)c2c[nH]c3ccccc23)c2ccccc2)cc(OCCCO)c1 (stereo not shown) [CPD-361] | 90 | 50 |  |  |  | 
